According to US20100311580A1, “Active Compound Combinations” (Bayer CropScience AG, priority 2007, published 2010):

Legend:
Type in all cases: in vivo
[1] = tested on: Phaedon cochleariae; experiment: Phaedon cochleariae test (spray on cabbage leaves); details: larvae
Method: Solvent: 7 parts by weight of dimethylformamide
Emulsifier: 2 parts by weight of alkylaryl polyglycolether
(§1) To produce a suitable preparation of active compound, 1 part by weight of active compound is mixed with the stated amount of solvent and emulsifier, and the concentrate is diluted with emulsifier-containing water to the desired concentration.
Cabbage leaves (Brassica oleracea) are treated by being sprayed with the preparation of the active compound at the desired concentration and are infested with larvae of the mustard beetle (Phaedon cochleariae) as long as the leaves are still moist.
After the specified period of time, the mortality in % is determined. 100% means that all the beetle larvae have been killed; 0% means that none of the beetle larvae have been killed.

[2] = tested on: Nilaparvata lugens; experiment: Nilaparvata lugens test (spray on rice plants); details: larvae
Method: Solvent: 7 parts by weight of dimethylformamide Emulsifier: 2 parts by weight of alkylaryl polyglycolether
as §1
Rice plants (Oryza sativa) are treated by being sprayed with the preparation of the active compound at the desired concentration and are infested with larvae of the Brown plant hopper (Nilaparvata lugens) as long as the leaves are still moist.
After the specified period of time, the mortality in % is determined. 100% means that all the hopper larvae have been killed; 0% means that none of the hopper larvae have been killed.

[3] = tested on: Blumeria graminis f. sp. hordei; experiment: Blumeria test (barley)/SAR 5d; details: 1000 ppm, inoculation 5 days after spraying, evaluated 7 days after inoculation
Method: Solvent: 50 parts by weight of n,n-dimethylacetamid Emulsifier: 1 part by weight of alkylaryl polyglycol ether
To produce a suitable preparation of active compound, 1 part by weight of active compound or active compound combination is mixed with the stated amounts of solvent and emulsifier, and the concentrate is diluted with water to the desired concentration.
To test for systemic activated resistance, young plants are sprayed with the preparation of active compound or active compound combination at the stated rate of application. After the spray coating has dried on, the plants are placed in a greenhouse at a temperature of approximately 18° C. and a relative atmospheric humidity of approximately 80%.
5 days after spraying, the plants are dusted with spores of Blumeria graminis f. sp. hordei. The plants then remain in a greenhouse at a temperature of approximately 18° C. and a relative atmospheric humidity of approximately 80% to promote the development of mildew pustules.
The test is evaluated 7 days after the inoculation, 1. and 2. leaf separated. 0% means an efficacy with corresponds to that of the control while an efficacy of 100% means that no disease is observed.

SMILES | Efficacy in % after 3 d (mortality) ([1]; 4 ppm) | Efficacy in % ([3]; 1st leaf) | Efficacy in % ([3]; 2nd leaf) | further results
N#C/N=C1\SCCN1Cc1ccc(Cl)nc1 [Thiacloprid, thiacloprid] | 5% |  |  | 
Cc1cc(C(F)(C(F)(F)F)C(F)(F)F)ccc1NC(=O)c1cccc(I)c1C(=O)NC(C)(C)CS(C)(=O)=O [Flubendiamide, flubendiamide] | 0% | 22% | 22% | Efficacy in % after 3 d (mortality) ([2]; 0.16 ppm): 0%; Efficacy in % after 3 d (mortality) ([1]; 0.8 ppm): 0%; Efficacy in % after 6 d (mortality) ([1]; 4 ppm): 0%
O=[N+]([O-])NC1=NCCN1Cc1ccc(Cl)nc1 [Imidacloprid, imidacloprid] |  |  |  | Efficacy in % after 3 d (mortality) ([2]; 0.8 ppm): 0%
CN/C(=N\[N+](=O)[O-])NCc1cnc(Cl)s1 [Clothianidin, clothianidin] | 15% |  |  | 
N#Cc1ccccc1NC(=O)c1snc(Cl)c1Cl [Isotianil, 3,4-dichloro-N-(2-cyanophenyl)-5-isothiazolecarboxamide] |  | 44% | 44% | Efficacy in % after 3 d (mortality) ([2]; 200 ppm): 0%; Efficacy in % after 3 d (mortality) ([1]; 200 ppm): 0%; Efficacy in % after 6 d (mortality) ([1]; 200 ppm): 0%
